Experimental data: patent publication US10590460B2, “Selective enrichment medium for carbapenem-resistant bacteria” (priority 2008, dated 2020)

What was measured:
[1] = test system: carbapenem-sensitive flora; assay: Culture of carbapenem-sensitive or carbapenem-resistant strains on CHROMagar Orientation medium with a carbapenem; type: cell-based
Description: Different strains of carbapenem-sensitive bacteria or carbapenem-resistant bacteria were cultured under three sets of conditions: • group 1: CHROMagar Orientation medium • group 2: CHROMagar Orientation medium in the presence of meropenem (0.065; 0.25; 1 or 4 mg/L); and • group 3: CHROMagar Orientation medium in the presence of imipenem (MSD, TIENAM (includes 50% imipenem) 0.0325; 0.125; 0.5 or 2 mg/L of imipenem)
Different strains of carbapenem-sensitive bacteria or carbapenem-resistant bacteria were cultured under two sets of conditions: • group 1: CHROMagar Orientation medium; and • group 2: CHROMagar Orientation medium in the presence of ertapenem (INVAZ; 0.0325; 0.065; 0.125; 0.25; 0.5 or 2 mg/L).

[2] = test system: carbapenem-sensitive bacteria; assay: Ageing tests on meropenem versus imipenem in CHROMagar Orientation medium; type: cell-based
Description: (§1) Different strains of carbapenem-sensitive bacteria or carbapenem-resistant bacteria were cultured under three different sets of conditions and with different spreading concentrations: • group 1: CHROMagar Orientation medium • group 2: CHROMagar Orientation medium in the presence of imipenem (MSD, TIENAM (includes 50% imipenem) 1 or 2 mg/L imipenem), and • group 3: CHROMagar Orientation medium in the presence of meropenem (0.12 or 0.25 mg/L).
(§2) Culture plates were then incubated at 37° C. and analysed regularly to establish the growth or absence of growth of bacteria.

[3] = type: physicochemical
Description: as §1, §2

SMILES	minimum concentration to eliminate carbapenem-sensitive flora [1]	inhibition of the growth of carbapenem-sensitive bacteria ([2]; 0.25 mg/L meropenem, 55 days in culture, 37° C.)	effectiveness in terms of inhibition compared to imipenem ([2]; ageing test, CHROMagar Orientation medium)	minimum concentration of meropenem relative to necessary minimum concentration of imipenem [1]	stability in an agar medium (duration) [3]	stability in the used culture medium compared to imipenem [3]	minimum concentration needed to eliminate carbapenem-sensitive flora (in words) ([1]; ertapenem 0.0325-2 mg/L tested)	stability in an agar medium (in words) [3]
C[C@@H](O)[C@H]1C(=O)N2C(C(=O)O)=C(SCCN=CN)C[C@H]12 [imipenem]	1 mg/L	–	–	–	–	–	–	–
C[C@@H](O)[C@H]1C(=O)N2C(C(=O)O)=C(S[C@@H]3CN[C@H](C(=O)N(C)C)C3)[C@H](C)[C@H]12 [meropenem]	0.25 mg/L	always higher than inhibition obtained at a concentration of 0.12 mg/L of meropenem after 36 days in culture	much more effective than imipenem	about ten times lower	2 to 4 months	much higher stability	–	–
C[C@@H](O)[C@H]1C(=O)N2C(C(=O)O)=C(S[C@@H]3CN[C@H](C(=O)Nc4cccc(C(=O)O)c4)C3)[C@H](C)[C@H]12 [ertapenem]	–	–	–	–	2 to 4 months	–	falls between that of meropenem and imipenem	good
